Test results: publication PMC12042115 (mLife, 2025)
Like-named read-outs stand apart in the source and are kept apart here.

Test system: wild‐type BCG cells
Assay type: cell-based, M. bovis BCG
Conditions: for Mean Ratio: GDI5755_2d vs DMSO_2d; for Mean Ratio / Mean Ratio (GDI5755_2d vs DMSO_2d): up-regulated; for Mean_Ratio (GDI5755_3d vs DMSO_3d): down-regulated, 3 d; for Mean Ratio (GDI5755_2d vs DMSO_2d): 2d

SMILES: O=C(Oc1ccc(Cl)cc1)c1ccc(N2CCOCC2)c([N+](=O)[O-])c1 [GDI‐5755]
- Mean Ratio (protein A0A0H3M8Y9 Cyclase): 1.26
- Mean Ratio (protein A0A0H3M9B9 Acetoacetate decarboxylase): 1.28
- Mean Ratio (protein A0A0H3M9C3 DUF3039 domain-containing protein): 1.28
- Mean Ratio (protein A0A0H3M9D8 Possible conserved membrane alanine rich protein): 1.31
- Mean Ratio (protein A0A0H3M9I1 Probable conserved secreted protein): 1.30
- Mean Ratio (protein A0A0H3M9I4 Probable membrane glycine and proline rich protein): 1.25
- Mean Ratio (protein A0A0H3M9K0 Probable penicillin-binding protein pbpA): 1.25
- Mean_Ratio (GDI5755_3d vs DMSO_3d) (protein A0A0H3M9N6, BCG_0093 (Rv0062), Glucanase): 0.7
- Mean_Ratio (GDI5755_3d vs DMSO_3d) (protein A0A0H3M9Q0, BCG_2848c (Rv2828A), COGs COG0840): 0.7
- Mean Ratio (protein A0A0H3M9S4 Carrier domain-containing protein): 1.26
- Mean Ratio (GDI5755_2d vs DMSO_2d) (protein A0A0H3M9U5 Phosphatidate cytidylyltransferase): 1.38
- Mean_Ratio (GDI5755_3d vs DMSO_3d) (protein A0A0H3M9Z8, BCG_2971c (Rv2950c), Probable fatty-acid-CoA ligase fadD29): 0.7
- Mean Ratio (protein A0A0H3M9Z9 Probable conserved transmembrane protein rich in alanine and arginine and proline): 1.28
- Mean Ratio (protein A0A0H3M143 peptidoglycan glycosyltransferase): 1.26
- Mean_Ratio (GDI5755_3d vs DMSO_3d) (protein A0A0H3M233, BCG_0693c (Rv0644c), Methoxy mycolic acid synthase 2 mmaA2): 0.7
- Mean_Ratio (GDI5755_3d vs DMSO_3d) (protein A0A0H3M245, BCG_0704 (Rv0655), Possible ribonucleotide-transport ATP-binding protein ABC transporter mkl): 0.7
- Mean Ratio (GDI5755_2d vs DMSO_2d) (protein A0A0H3M252 Probable glutamine-binding lipoprotein glnH): 1.33
- Mean Ratio (GDI5755_2d vs DMSO_2d) (protein A0A0H3M331 Uncharacterized protein): 1.34
- Mean_Ratio (GDI5755_3d vs DMSO_3d) (protein A0A0H3M363, BCG_0875c (Rv0822c), Cell envelope-associated transcriptional attenuator LytR-CpsA-Psr, subfamily A1): 0.752
- Mean_Ratio (GDI5755_3d vs DMSO_3d) (protein A0A0H3M469, BCG_1204c (MRA_1152), Probable enoyl-CoA hydratase echA10): 0.742
- Mean_Ratio (GDI5755_3d vs DMSO_3d) (protein A0A0H3M476, BCG_0711c (Rv0662c), Ribbon-helix-helix protein CopG domain-containing protein): 0.7
- Mean Ratio (protein A0A0H3M482 Conserved transmembrane protein): 1.29
- Mean_Ratio (GDI5755_3d vs DMSO_3d) (protein A0A0H3M495, BCG_1238c (Rv1175c), Probable NADPH dependent 2,4-dienoyl-CoA reductase fadH): 0.758
- Mean Ratio (protein A0A0H3M519 Probable conserved lipoprotein): 1.28
- Mean Ratio (protein A0A0H3M628 Probable lipoprotein lppP): 1.31
- Mean Ratio (GDI5755_2d vs DMSO_2d) (protein A0A0H3M639 Probable metal cation transporter P-type atpase G ctpG): 1.33
- Mean Ratio (GDI5755_2d vs DMSO_2d) (protein A0A0H3M660 Conserved membrane protein): 1.39
- Mean Ratio (protein A0A0H3M672 Sirohydrochlorin cobaltochelatase): 1.28
- Mean Ratio (protein A0A0H3M707 Probable conserved integral membrane alanine and valine and leucine rich protein): 1.26
- Mean_Ratio (GDI5755_3d vs DMSO_3d) (protein A0A0H3M735, BCG_2390c (Rv2376c), Low molecular weight antigen cfp2): 0.7
- Mean_Ratio (GDI5755_3d vs DMSO_3d) (protein A0A0H3M760, BCG_0066 (Rv0035), Probable fatty-acid-coa ligase fadD34): 0.7
- Mean Ratio (protein A0A0H3M769 Lipid/polyisoprenoid-binding YceI-like domain-containing protein): 1.28
- Mean_Ratio (GDI5755_3d vs DMSO_3d) (protein A0A0H3M827, BCG_2840c (Rv2821c), CRISPR system Cms endoribonuclease Csm3): 0.7
- Mean_Ratio (GDI5755_3d vs DMSO_3d) (protein A0A0H3M844, BCG_2251 (Rv2234), Phosphotyrosine protein phosphatase ptpA): 0.7
- Mean Ratio (protein A0A0H3M847 Probable conserved transmembrane alanine rich protein): 1.26
- Mean_Ratio (GDI5755_3d vs DMSO_3d) (protein A0A0H3M848, BCG_3111 (Rv3086), alcohol dehydrogenase, adhD): 0.761
- Mean Ratio (GDI5755_2d vs DMSO_2d) (protein A0A0H3M855 Acyl carrier protein): 1.34
- Mean Ratio (protein A0A0H3M918 Protein-export membrane protein SecF): 1.28
- Mean_Ratio (GDI5755_3d vs DMSO_3d) (protein A0A0H3M922, BCG_3278c (Rv3249c), Possible transcriptional regulatory protein (Probably tetR-family)): 0.757
- Mean_Ratio (GDI5755_3d vs DMSO_3d) (protein A0A0H3M964, BCG_1004c (Rv0950c), Peptidase M23 domain-containing protein): 0.7
- Mean Ratio (protein A0A0H3M969 HNH nuclease domain-containing protein): 1.26
- Mean_Ratio (GDI5755_3d vs DMSO_3d) (protein A0A0H3M984, BCG_3389c (Rv3323c), Probable moaD-moaE fusion protein moaX): 0.756
- Mean Ratio (GDI5755_2d vs DMSO_2d) (protein A0A0H3MA04 ATP-dependent zinc metalloprotease FtsH): 1.34
- Mean_Ratio (GDI5755_3d vs DMSO_3d) (protein A0A0H3MA19, BCG_0251 (Rv0214), Probable fatty-acid-CoA ligase fadD4): 0.739
- Mean_Ratio (GDI5755_3d vs DMSO_3d) (protein A0A0H3MA36, BCG_3704c (Rv3646c), DNA topoisomerase 1): 0.7
- Mean_Ratio (GDI5755_3d vs DMSO_3d) (protein A0A0H3MA81, BCG_1461c (Rv1400c), Probable lipase lipH): 0.751
- Mean Ratio (protein A0A0H3MAA3 Possible conserved membrane protein): 1.25
- Mean_Ratio (GDI5755_3d vs DMSO_3d) (protein A0A0H3MAA7, BCG_0352 (Rv0312), Conserved hypothetical proline and threonine rich protein): 0.739
- Mean Ratio (GDI5755_2d vs DMSO_2d) (protein A0A0H3MAB2 Conserved membrane protein): 1.33
- Mean_Ratio (GDI5755_3d vs DMSO_3d) (protein A0A0H3MAC6, BCG_0385c (Rv0346c), l-asparagine permease ansP2): 0.7
- Mean Ratio (GDI5755_2d vs DMSO_2d) (protein A0A0H3MAC8 Possible conserved transmembrane protein): 1.38
- Mean_Ratio (GDI5755_3d vs DMSO_3d) (protein A0A0H3MAD2, BCG_0398c (Rv0360c), DUF3151 domain-containing protein): 0.7
- Mean Ratio (protein A0A0H3MAE2 Probable carbon monoxyde dehydrogenase (Medium chain)): 1.31
- Mean Ratio (protein A0A0H3MAF8 Serine/threonine-protein kinase PknG): 1.26
- Mean_Ratio (GDI5755_3d vs DMSO_3d) (protein A0A0H3MAI2, BCG_0498 (Rv0458), Probable aldehyde dehydrogenase): 0.7
- Mean_Ratio (GDI5755_3d vs DMSO_3d) (protein A0A0H3MAI6, BCG_3192 (Rv3168), Aminoglycoside phosphotransferase domain-containing protein): 0.7
- Mean_Ratio (GDI5755_3d vs DMSO_3d) (protein A0A0H3MAK6, BCG_0543 (Rv0500A), Helix-turn-helix domain-containing protein): 0.757
- Mean_Ratio (GDI5755_3d vs DMSO_3d) (protein A0A0H3MAL3, BCG_3212c (Rv3190c), Restriction endonuclease): 0.7
- Mean Ratio (protein A0A0H3MAP0 Conserved hypothetical alanine valine rich protein): 1.28
- Mean Ratio (protein A0A0H3MAW6 Uncharacterized protein): 1.27
- Mean Ratio (protein A0A0H3MAY5 (BCG_0774) Possible protease IV sppA (Endopeptidase IV)): 1.28
- Mean_Ratio (GDI5755_3d vs DMSO_3d) (protein A0A0H3MB28, BCG_3433c (Rv3361c), Pentapeptide repeat protein MfpA): 0.741
- Mean_Ratio (GDI5755_3d vs DMSO_3d) (protein A0A0H3MB50, BCG_3459 (Rv3390), Probable conserved lipoprotein lpqD): 0.7
- Mean_Ratio (GDI5755_3d vs DMSO_3d) (protein A0A0H3MB93, BCG_3517 (Rv3451), Cutinase): 0.7
- Mean_Ratio (GDI5755_3d vs DMSO_3d) (protein A0A0H3MB98, BCG_1906c (Rv1870c), Endonuclease): 0.7
- Mean_Ratio (GDI5755_3d vs DMSO_3d) (protein A0A0H3MBC9, BCG_3565c (Rv3501c), Conserved hypothetical integral membrane protein yrbE4A): 0.7
